Laboratory results reported in ChEMBL document CHEMBL1155881, “Structure-based development of novel adenylyl cyclase inhibitors” (J Med Chem, 2008).
Active and inactive are the calls of the source. The calls are words filed in the database; no cut-off is given here.

Key:
Adenylate cyclase = biological target: T1, Adenylate cyclase (Arthrospira platensis, UniProt O32393); assay: Inhibition of Spirulina platensis adenylyl cyclase assessed as cAMP level by cAMP immunogenic assay; parameters: species or system Limnospira platensis
T1 sequence (O32393 whole entry): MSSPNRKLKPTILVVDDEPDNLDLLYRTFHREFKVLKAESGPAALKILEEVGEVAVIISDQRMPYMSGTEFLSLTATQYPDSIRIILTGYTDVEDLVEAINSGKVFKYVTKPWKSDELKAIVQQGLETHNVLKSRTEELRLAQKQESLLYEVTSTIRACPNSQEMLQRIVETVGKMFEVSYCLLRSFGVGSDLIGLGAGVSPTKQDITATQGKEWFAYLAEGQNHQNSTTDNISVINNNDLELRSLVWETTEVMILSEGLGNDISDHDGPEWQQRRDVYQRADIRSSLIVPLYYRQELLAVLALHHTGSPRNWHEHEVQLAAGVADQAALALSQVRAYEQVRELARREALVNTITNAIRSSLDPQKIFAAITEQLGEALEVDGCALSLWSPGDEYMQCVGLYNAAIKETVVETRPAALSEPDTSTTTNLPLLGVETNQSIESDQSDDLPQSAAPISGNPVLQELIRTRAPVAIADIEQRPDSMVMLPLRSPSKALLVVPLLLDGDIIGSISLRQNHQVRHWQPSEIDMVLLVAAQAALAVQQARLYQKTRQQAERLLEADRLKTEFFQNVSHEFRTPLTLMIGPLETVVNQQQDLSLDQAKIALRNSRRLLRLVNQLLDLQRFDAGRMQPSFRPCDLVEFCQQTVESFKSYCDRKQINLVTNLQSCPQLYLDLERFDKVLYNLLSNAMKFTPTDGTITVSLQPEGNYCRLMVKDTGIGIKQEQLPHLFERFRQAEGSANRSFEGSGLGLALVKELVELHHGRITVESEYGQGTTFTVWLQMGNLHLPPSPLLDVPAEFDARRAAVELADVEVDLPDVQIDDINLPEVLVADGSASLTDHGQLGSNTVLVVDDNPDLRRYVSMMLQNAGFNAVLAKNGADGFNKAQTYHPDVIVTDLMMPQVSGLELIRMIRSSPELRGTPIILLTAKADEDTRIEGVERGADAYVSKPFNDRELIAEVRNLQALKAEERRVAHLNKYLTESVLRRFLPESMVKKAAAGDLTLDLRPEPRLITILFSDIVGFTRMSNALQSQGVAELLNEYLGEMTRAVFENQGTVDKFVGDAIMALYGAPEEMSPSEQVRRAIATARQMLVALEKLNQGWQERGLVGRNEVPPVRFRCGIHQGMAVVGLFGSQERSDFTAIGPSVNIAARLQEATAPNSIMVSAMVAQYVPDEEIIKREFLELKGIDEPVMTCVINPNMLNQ

[1] = biological target: Adenylate cyclase type 10 (Homo sapiens, UniProt Q96PN6); assay: Inhibition of human recombinant soluble adenylyl cyclase
Chain of Adenylate cyclase type 10 (Q96PN6 whole entry): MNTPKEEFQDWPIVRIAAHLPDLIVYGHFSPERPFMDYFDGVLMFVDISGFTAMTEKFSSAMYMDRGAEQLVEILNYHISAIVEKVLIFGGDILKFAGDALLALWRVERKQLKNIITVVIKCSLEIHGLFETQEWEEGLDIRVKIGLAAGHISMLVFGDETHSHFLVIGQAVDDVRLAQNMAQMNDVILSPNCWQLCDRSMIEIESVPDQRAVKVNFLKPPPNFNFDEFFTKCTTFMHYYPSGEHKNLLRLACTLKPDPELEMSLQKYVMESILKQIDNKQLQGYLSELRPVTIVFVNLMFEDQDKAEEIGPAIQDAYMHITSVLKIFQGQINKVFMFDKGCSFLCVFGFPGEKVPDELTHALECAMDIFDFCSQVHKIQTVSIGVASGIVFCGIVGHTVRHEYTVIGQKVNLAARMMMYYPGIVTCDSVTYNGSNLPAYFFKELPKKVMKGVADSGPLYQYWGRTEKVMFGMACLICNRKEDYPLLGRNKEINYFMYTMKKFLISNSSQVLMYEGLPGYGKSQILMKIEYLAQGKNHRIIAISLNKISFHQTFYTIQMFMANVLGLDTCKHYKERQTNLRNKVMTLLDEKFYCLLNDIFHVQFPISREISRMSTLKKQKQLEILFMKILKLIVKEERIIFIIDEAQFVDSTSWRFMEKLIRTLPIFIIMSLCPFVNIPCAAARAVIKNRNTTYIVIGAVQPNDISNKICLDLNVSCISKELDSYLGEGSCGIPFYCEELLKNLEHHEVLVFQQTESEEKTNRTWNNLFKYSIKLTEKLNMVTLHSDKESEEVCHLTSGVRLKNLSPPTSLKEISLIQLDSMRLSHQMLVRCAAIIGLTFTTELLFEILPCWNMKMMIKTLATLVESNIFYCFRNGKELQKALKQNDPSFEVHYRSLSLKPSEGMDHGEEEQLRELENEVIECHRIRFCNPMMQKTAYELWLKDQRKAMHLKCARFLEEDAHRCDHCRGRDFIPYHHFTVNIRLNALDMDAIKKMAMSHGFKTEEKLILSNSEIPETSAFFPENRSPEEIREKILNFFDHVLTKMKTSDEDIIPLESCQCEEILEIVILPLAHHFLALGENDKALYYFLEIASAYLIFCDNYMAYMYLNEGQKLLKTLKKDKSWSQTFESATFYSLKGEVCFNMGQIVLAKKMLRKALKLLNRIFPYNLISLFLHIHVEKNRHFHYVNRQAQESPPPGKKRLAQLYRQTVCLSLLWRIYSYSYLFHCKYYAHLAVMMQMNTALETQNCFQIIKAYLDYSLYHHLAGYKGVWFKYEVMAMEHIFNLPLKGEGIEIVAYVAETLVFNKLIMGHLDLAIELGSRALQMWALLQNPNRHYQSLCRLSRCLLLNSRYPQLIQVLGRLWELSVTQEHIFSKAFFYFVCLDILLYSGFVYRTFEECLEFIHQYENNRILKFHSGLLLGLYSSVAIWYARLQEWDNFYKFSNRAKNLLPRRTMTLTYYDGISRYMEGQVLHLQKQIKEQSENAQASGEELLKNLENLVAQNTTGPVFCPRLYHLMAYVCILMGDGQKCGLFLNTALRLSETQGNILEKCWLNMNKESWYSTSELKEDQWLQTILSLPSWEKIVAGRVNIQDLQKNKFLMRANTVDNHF

[2] = biological target: Adenylate cyclase type 1 (Homo sapiens) (UniProt Q08828); assay: Inhibition of forskolin-stimulated adenylyl cyclase 1 activity expressed in HEK293 cells at 100 uM; format: cell-based
Chain of Adenylate cyclase type 1 (Homo sapiens) (Q08828 whole entry, looked up): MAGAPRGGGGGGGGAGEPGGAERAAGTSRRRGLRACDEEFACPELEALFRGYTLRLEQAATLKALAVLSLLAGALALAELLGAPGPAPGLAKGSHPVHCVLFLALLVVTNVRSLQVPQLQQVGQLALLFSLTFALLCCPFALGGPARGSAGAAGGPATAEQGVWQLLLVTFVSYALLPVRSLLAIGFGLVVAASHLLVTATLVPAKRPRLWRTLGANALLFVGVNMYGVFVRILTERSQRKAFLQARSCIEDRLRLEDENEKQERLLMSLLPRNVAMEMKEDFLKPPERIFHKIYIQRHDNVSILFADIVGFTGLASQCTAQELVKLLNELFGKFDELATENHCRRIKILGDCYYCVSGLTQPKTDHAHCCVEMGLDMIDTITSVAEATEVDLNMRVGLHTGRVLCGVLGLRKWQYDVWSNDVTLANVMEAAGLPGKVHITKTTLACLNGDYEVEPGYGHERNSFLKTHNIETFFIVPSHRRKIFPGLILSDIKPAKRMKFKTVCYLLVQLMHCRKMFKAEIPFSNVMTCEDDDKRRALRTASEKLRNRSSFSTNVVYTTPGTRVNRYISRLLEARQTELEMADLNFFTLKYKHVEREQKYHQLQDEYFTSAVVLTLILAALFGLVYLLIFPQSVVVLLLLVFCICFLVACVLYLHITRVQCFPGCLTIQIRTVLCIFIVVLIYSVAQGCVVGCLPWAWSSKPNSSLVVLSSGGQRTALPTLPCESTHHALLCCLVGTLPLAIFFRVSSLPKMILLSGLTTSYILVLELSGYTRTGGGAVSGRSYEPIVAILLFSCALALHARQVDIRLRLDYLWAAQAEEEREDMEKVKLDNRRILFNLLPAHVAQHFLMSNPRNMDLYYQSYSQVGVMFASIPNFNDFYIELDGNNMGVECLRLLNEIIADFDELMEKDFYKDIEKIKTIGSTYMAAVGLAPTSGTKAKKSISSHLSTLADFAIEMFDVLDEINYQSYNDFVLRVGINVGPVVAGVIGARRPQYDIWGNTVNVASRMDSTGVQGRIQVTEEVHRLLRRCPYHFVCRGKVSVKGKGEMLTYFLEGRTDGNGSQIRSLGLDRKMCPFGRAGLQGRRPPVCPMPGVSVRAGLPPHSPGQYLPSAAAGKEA

[3] = biological target: Adenylate cyclase (Homo sapiens) (UniProt Q8NFM4+O60503+Q08828+P40145+O60266+O95622+O43306+Q08462+P51828); assay: Inhibition of forskolin-stimulated human transmembrane adenylyl cyclase activity in HEK293 cells at 100 uM; format: cell-based
[4] = biological target: Adenylate cyclase type 2 (Homo sapiens) (UniProt Q08462); assay: Inhibition of basal activity of adenylyl cyclase 2 expressed in HEK293 cells at 100 uM; format: cell-based
Chain of Adenylate cyclase type 2 (Homo sapiens) (Q08462 whole entry): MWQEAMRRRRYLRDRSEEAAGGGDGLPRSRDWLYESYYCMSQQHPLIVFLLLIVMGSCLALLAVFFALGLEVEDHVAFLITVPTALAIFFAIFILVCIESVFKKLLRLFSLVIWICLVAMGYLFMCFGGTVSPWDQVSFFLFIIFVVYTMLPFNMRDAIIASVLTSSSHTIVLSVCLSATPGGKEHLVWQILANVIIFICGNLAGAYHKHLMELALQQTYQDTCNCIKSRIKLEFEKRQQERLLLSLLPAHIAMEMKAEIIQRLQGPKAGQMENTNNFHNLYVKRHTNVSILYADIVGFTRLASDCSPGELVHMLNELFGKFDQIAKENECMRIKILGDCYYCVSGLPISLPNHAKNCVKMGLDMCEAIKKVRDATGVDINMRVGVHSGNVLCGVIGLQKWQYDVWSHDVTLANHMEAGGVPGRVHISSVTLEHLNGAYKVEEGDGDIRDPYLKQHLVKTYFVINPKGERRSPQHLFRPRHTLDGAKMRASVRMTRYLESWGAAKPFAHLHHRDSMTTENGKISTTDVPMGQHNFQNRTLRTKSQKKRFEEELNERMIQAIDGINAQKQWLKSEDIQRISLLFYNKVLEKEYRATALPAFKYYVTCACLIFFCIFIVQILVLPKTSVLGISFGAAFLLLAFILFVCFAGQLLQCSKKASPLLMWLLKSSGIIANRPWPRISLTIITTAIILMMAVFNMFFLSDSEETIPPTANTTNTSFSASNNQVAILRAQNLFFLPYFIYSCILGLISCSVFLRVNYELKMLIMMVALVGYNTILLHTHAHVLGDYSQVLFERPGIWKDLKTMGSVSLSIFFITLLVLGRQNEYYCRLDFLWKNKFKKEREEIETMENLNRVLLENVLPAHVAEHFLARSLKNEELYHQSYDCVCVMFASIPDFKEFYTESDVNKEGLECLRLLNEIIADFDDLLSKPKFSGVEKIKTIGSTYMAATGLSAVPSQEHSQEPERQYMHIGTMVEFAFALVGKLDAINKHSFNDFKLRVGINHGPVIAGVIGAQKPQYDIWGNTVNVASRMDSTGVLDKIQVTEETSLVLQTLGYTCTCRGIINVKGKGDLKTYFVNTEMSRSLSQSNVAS

[5] = biological target: Adenylate cyclase type 5 (Homo sapiens) (UniProt O95622); assay: Inhibition of forskolin-stimulated adenylyl cyclase 5 activity expressed in HEK293 cells at 100 uM; format: cell-based
Chain of Adenylate cyclase type 5 (Homo sapiens) (O95622 whole entry, looked up): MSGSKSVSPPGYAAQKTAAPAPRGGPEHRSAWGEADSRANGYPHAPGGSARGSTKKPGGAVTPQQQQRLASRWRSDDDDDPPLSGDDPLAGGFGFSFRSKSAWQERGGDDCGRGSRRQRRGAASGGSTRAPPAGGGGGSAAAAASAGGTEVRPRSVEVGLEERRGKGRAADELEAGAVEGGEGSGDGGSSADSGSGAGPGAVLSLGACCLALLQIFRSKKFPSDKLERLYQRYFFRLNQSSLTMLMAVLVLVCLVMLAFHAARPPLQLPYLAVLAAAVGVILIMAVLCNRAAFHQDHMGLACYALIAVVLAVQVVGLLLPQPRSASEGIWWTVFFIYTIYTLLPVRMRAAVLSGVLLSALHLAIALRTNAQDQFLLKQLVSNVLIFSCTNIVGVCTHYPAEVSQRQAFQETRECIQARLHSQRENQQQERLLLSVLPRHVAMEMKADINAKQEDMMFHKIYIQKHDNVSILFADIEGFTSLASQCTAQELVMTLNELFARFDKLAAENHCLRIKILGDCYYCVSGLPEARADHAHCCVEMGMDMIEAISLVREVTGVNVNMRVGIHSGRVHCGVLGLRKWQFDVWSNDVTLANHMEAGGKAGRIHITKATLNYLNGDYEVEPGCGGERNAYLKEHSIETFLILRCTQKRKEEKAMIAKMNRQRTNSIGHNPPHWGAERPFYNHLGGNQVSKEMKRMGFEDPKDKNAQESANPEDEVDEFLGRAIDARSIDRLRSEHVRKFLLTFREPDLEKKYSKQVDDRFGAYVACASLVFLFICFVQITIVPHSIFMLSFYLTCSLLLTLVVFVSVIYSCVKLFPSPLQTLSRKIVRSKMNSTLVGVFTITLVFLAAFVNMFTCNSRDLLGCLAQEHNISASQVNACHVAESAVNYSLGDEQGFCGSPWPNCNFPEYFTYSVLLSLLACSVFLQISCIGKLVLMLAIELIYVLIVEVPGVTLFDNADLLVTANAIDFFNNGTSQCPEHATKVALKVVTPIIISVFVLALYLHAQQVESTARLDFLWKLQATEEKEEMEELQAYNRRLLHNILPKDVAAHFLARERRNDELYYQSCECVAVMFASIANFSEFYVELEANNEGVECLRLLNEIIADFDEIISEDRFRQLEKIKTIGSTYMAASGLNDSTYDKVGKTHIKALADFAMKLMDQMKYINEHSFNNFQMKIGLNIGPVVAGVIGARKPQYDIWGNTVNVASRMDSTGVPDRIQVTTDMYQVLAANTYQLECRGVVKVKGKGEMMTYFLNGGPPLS

[6] = biological target: T2, Adenylate cyclase type 9 (Homo sapiens) (UniProt O60503); assay: Inhibition of basal activity of adenylyl cyclase 9 expressed in HEK293 cells at 100 uM; format: cell-based
T2 sequence (whole entry): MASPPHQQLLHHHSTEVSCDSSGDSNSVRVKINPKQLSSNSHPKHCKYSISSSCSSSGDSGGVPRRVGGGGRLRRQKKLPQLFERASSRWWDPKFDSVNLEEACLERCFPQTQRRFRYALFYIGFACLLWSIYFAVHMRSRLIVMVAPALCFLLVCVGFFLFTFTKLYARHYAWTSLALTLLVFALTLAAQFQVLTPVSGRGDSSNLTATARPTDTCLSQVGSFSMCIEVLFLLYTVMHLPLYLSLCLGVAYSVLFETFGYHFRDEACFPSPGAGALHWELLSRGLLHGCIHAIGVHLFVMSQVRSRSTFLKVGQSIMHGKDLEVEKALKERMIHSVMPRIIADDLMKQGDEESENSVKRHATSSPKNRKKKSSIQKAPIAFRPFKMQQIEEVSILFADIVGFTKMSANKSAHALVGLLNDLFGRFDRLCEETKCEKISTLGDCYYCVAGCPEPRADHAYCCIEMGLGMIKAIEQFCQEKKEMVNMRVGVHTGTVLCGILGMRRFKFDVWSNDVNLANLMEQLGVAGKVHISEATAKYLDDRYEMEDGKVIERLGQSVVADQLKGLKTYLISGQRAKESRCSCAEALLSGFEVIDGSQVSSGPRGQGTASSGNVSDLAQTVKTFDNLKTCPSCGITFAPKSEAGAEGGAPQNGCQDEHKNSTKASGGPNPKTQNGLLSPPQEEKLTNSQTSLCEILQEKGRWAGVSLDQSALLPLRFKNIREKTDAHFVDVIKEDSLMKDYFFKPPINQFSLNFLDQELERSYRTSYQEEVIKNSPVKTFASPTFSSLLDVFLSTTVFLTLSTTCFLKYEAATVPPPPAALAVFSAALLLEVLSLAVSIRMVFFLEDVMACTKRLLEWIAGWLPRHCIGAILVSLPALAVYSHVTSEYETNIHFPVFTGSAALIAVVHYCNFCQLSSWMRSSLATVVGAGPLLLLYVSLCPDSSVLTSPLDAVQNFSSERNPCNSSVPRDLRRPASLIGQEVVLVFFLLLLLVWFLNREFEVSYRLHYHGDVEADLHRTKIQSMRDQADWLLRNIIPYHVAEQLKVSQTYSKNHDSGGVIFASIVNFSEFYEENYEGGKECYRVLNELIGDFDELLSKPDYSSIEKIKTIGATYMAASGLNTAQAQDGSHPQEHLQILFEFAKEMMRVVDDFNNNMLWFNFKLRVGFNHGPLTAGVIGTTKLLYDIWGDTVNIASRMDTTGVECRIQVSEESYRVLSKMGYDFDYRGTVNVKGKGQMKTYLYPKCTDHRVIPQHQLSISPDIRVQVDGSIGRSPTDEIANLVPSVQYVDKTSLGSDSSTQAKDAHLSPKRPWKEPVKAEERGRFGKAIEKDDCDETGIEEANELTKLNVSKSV

[7] = biological target: Adenylate cyclase type 2 (Homo sapiens) (UniProt Q08462); assay: Stimulation of basal activity of adenylyl cyclase 2 expressed in HEK293 cells at 100 uM in presence of forskolin; format: cell-based

Work on C[C@H]1[C@H](C)CC[C@]2(C(=O)O)CC[C@]3(C)C(=CC[C@@H]4[C@@]5(C)C[C@@H](O)[C@H](O)[C@@](C)(CO)[C@@H]5[C@H](O)C[C@]43C)[C@H]12 [MADECASSIC ACID] yielded an IC50 (Adenylate cyclase) of 100 µM.

BrC(c1cccc2ccccc12)c1cccc2ccccc12 showed an IC50 (Adenylate cyclase) of 200 µM.

For C[C@]12CC[C@H]3[C@@H](CCC4=CC(=O)CC[C@@]43C)[C@@H]1CC[C@@H]2C(=O)COS(=O)(=O)c1ccc(Br)cc1, the IC50 [1] was 1.1 µM, the Activity [2] was “inactive” and the Activity [3] was “inactive”. The Activity [4] was “inactive”, the Activity [5] was “inactive” and the Activity [6] was “inactive”.

In the case of C[C@]12CC[C@@H]3c4cc(O)c(O)cc4CC[C@H]3[C@@H]1CC[C@@H]2O, the IC50 [1] is reported as 3 µM.

For O=C(O)c1cc2c(cc1S(=O)(=O)O)C1C(C3C2C2(Cl)C(Cl)=C(Cl)C3(Cl)C2(Cl)Cl)C2(Cl)C(Cl)=C(Cl)C1(Cl)C2(Cl)Cl (stereo unspecified), the IC50 [1] was 11 µM, the Activity [7] was “Active” and the Activity [2] was “Active”. For the same compound, the Activity [3] was “Active”, the Activity [4] was “Active” and the Activity [5] was “Active”. The Activity [6] was “Active”.
